From patent US20200245616A1, “A Disinfectant Composition with Extended Antimicrobial Effects” (Siamons International Inc., priority 2017, published 2020)

What was measured:
Assay type in all cases: cell-based
[1] = test system: Pseudomonas aeruginosa ATCC 15442; test: AOAC Official Method 961.02 Germicidal Spray Method, bacteria on glass carriers; conditions: for Pseudomonas aeruginosa Growth Rate: 10 min contact
Excerpt: (§1) In this method, a series of glass slides (“carriers”) were inoculated with a representative test organism and the carriers were dried under ambient conditions. The dried organisms on the surface of the carrier were then sequentially treated with the composition of the present disclosure in the form of a spray product and were exposed for a pre-determined exposure time. After exposure, the carriers were sequentially transferred to a liquid subculture medium specifically selected to neutralize the composition of the present disclosure and to recover any surviving test organism. The carriers were incubated and visually examined for the presence or absence of growth. […] Required organisms for a disinfection claim include but are not limited to Staphylococcus aureus, Salmonella choleraesuis and Pseudomonas aeruginosa.
(§2) Method Adapted to the Preparation of Bacteria Cultures from −80° C. Freshly Recovered Stock. […] Added 10 μL of the thawed stock to a tube containing 10 mL synthetic broth and then vortexed to mix. Discarded the rest of cryovial stock. • Incubated the tube at 36 ±1° C. for 24 hours (h). Briefly vortexed the 24 h culture prior to transfer. For this final subculture step, inoculated two 20×150 mm tubes containing 10 mL synthetic broth with […] of the 24 h synthetic broth culture. • Incubated 48 h at 36±1° C. Using a Vortex-style mixer, mixed synthetic broth test cultures 3-4 seconds and let stand 10 minutes at room temperature before continuing. Removed the upper portion of each culture, leaving behind any debris or clumps, and transferred to a sterile tube. Titrated the culture by plating on synthetic agar plates, and diluted to 5×10^8 Colony Forming Units (CFU) per mL.
(§3) High volume screening studies were conducted in some cases where only 4 organism-inoculated carriers were treated at specified concentrations of CTAB. Vortex-mixed the inoculum periodically during inoculation of the carriers. • Immediately spread the inoculum uniformly over the majority of the carrier surface using a sterile loop. […] Covered dish immediately and repeated operation until 64 carriers had been prepared for the test. Once all of the carriers had been inoculated, placed in incubator at 37° C. for 40 minutes until dry.
(§4) • After the test organisms were dried on the surface of the carrier, each carrier was sprayed with the respective disinfection formulae 10 times in 10 seconds at a distance of 30 cm. • Treatment interval was timed. Ten (10) minutes after each carrier had been sprayed by the disinfectant, the excess liquid was removed and the carriers were transferred in a sequentially timed fashion into the culture tubes containing 20 ml neutralizer (Letheen Broth with 0.07% Lecithin/0.5% Tween 80/0.1% Sodium Thiosulfate) to neutralize the disinfectant. […] The percentage of the treated carriers showing growth after 48 hours was recorded.

[2] = test system: Staphylococcus aureus ATCC 6538; test: as above; conditions: 10 min contact
Excerpt: as §1, §2, §3, §4

[3] = test system: Salmonella choleraesuis ATCC 10708; test: as above; conditions: 10 min contact
Protocol: All experiments were conducted according to the protocol outlined in AOAC Official Method 961.02 (Germicidal Spray Method), which is a carrier-based method used to evaluate disinfection efficacy of aerosol/pump-based spray products and liquid products for registration with regulatory agencies such as the U.S. EPA and Health Canada.
as §1
Method Adapted to the Preparation of Bacteria Cultures from −80° C. Freshly Recovered Stock. […]

[4] = test system: Aspergillus niger ATCC 6275; test: AOAC Official Method 961.02 Germicidal Spray Method, fungal conidia on glass carriers; conditions: 10 min contact
Excerpt: as §1
(§5) The conidiospore suspension was macerated in a tissue grinder. The suspension was filtered through sterile cotton to remove the hyphae and hyphal fragments.
(§6) Vortex-mixed the inoculum periodically during inoculation of the carriers. • Immediately spread the inoculum uniformly over the majority of the carrier surface using a sterile loop. […] High volume screening studies were conducted in some cases where only 4 organism-inoculated carriers were treated at specified concentrations of CTAB. Once all of the carriers had been inoculated, the carriers were placed in an incubator at 37° C. for 40 minutes until completely dry.
(§7) • After drying, each carrier was sprayed with the respective disinfection formulae 10 times in 10 seconds at a distance of 30 cm. • Timed the treatment interval. Ten (10) minutes after each carrier had been exposed to the disinfectant, the excess liquid was removed and the carriers were transferred in a sequentially timed fashion into the culture tubes containing 20 ml neutralization broth (Letheen Broth with 0.07% Lecithin /0.5% Tween 80) to neutralize the disinfectant. • After the carriers were deposited in the respective culture tubes, the tubes were recapped and the cultures were thoroughly resuspended. • Incubated all neutralization tubes at 28 ±1° C. for 14 days. • After 14 days, the cultures within the tubes were examined for growth. The percentage of the treated carriers showing growth was recorded.

[5] = test system: Penicillium variable ATCC 32333; test: as above; conditions: 10 min contact
Excerpt: as §1, §5, §6, §7

[6] = test system: Trichophyton mentagrophytes ATCC 9533; test: as above; conditions: 10 min contact
Excerpt: as §1, §5, §6, §7

In the case of CCCCCCCCCCCCCCCC[N+](C)(C)C.[Br-] [CTAB, cetyltrimethylammonium bromide], the “Pseudomonas aeruginosa Growth Rate” value ([1]; CTAB 0.0010% in water (no CMC)) is reported as 100%, the “Pseudomonas aeruginosa Growth Rate” value ([1]; CTAB 0.0100% in water (no CMC)) is reported as 100% and the “Pseudomonas aeruginosa Growth Rate” value ([1]; CTAB 0.0500% in water (no CMC)) is reported as 100%. For the same compound, the “efficacy against Pseudomonas” value ([1]; CTAB on its own in water, 0.05%) was “ineffective”, the “Staphylococcus aureus Growth Rate” value ([2]; CTAB 0.0010% in water (no CMC)) was 100% and the “Staphylococcus aureus Growth Rate” value ([2]; CTAB 0.0100% in water (no CMC)) was 100%. The “Staphylococcus aureus Growth Rate” value ([2]; CTAB 0.0500% in water (no CMC)) was 40%, the “Staphylococcus aureus Growth Rate” value ([2]; CTAB 0.1000% in water (no CMC)) was 40% and the “Salmonella choleraesuis Growth Rate” value ([3]; CTAB 0.0100% in water (no CMC)) was 100%. The “Salmonella choleraesuis Growth Rate” value ([3]; CTAB 0.1000% in water (no CMC)) was 0%, the “Aspergillus niger Growth Rate” value ([4]; CTAB 0.0010% in water (no CMC)) was 100% and the “Aspergillus niger Growth Rate” value ([4]; CTAB 0.0100% in water (no CMC)) was 100%. For the same compound, the “Aspergillus niger Growth Rate” value ([4]; CTAB 0.0500% in water (no CMC)) was 100%, the “Aspergillus niger Growth Rate” value ([4]; CTAB 0.1000% in water (no CMC)) was 100% and the “Penicillium variable Growth Rate” value ([5]; CTAB 0.0010% in water (no CMC)) was 100%. For the same compound, the “Penicillium variable Growth Rate” value ([5]; CTAB 0.0100% in water (no CMC)) was 0%, the “Penicillium variable Growth Rate” value ([5]; CTAB 0.0500% in water (no CMC)) was 0% and the “Penicillium variable Growth Rate” value ([5]; CTAB 0.1000% in water (no CMC)) was 0%. For the same compound, the “Trichophyton mentagrophytes Growth Rate” value ([6]; CTAB 0.0010% in water (no CMC)) was 0%, the “Trichophyton mentagrophytes Growth Rate” value ([6]; CTAB 0.0100% in water (no CMC)) was 0% and the “Trichophyton mentagrophytes Growth Rate” value ([6]; CTAB 0.0500% in water (no CMC)) was 0%.
